Laboratory results as given in patent publication US20260216347A1, “Substituted Imidazo-Based Compounds as Ligand Directed Degraders of IRAK3” (Celgene Corporation, priority 2022, published 2026).

Legend:
IRAK3 [1] = biological target: T1, IRAK3 (Homo sapiens, UniProt Q9Y616); assay: IRAK endogenous HTRF degradation assay (Total-IRAK3 HTRF kit); format: cell-based; conditions: overnight incubation, lowest percentage of protein remaining
T1 construct: IRAK Endogenous HTRF Degradation Assay; endogenous in cells
T1 sequence (Q9Y616 1-596): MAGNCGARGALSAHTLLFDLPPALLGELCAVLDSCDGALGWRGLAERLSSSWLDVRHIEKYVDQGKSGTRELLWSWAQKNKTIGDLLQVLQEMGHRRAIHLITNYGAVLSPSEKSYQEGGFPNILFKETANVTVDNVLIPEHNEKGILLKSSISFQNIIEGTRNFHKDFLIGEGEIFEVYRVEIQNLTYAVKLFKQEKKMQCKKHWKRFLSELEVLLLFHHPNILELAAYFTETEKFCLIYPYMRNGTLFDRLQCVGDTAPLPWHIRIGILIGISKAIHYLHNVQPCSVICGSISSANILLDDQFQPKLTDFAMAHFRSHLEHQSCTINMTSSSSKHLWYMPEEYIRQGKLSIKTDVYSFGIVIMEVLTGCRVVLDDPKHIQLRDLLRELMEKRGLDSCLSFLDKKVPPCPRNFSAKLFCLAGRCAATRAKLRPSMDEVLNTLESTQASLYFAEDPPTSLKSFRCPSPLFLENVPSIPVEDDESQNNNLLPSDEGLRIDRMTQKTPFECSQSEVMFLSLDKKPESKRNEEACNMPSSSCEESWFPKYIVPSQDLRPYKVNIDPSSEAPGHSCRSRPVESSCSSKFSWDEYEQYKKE
Summary of the method: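 Cells (~50 k) incubated overnight with 3-fold serial dilutions of compound, then lysed; total IRAK3 read by HTRF (665/615 nm ratio ×10,000), normalized to DMSO as 100%. EC50 from four-parameter logistic fit; Dmax = 100 − Ymin (lowest % protein remaining); DC50 = concentration giving 50% degradation.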

IRAK3 [2] = biological target: T1, IRAK3; assay: IRAK3 biochemical binding assay (LanthaScreen Eu Kinase Binding, TR-FRET)
Summary of the method: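 TR-FRET tracer-displacement binding with 10 nM IRAK3, 2 nM Eu-anti-GST antibody and 10 nM tracer in 50 mM HEPES pH 7.4, MgCl2, 1 mM EGTA, 0.01% Brij-35. Compounds in 3-fold dilutions, 1 h at room temperature. 665/615 nm ratio gave % inhibition; IC50 and Hill slope from dose-response fit.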

SMILES | IRAK3 HTRF degradation Ymin (IRAK3 [1]) [%] | IC50 (IRAK3 [2]) [nM]
Cc1cc(-c2cnc(Nc3cnn([C@H]4CC[C@@H](CN5CCN(c6ccc(C7CCC(=O)NC7=O)cc6)CC5)CC4)c3)c3nccn23)c(F)cc1F (relative stereo) [Compound 71, 3-(4-(4-(((cis)-4-(4-((5-(2,4-difluoro-5-methylphenyl)imidazo[1,2-a]pyrazin-8-yl)amino)-1H-pyrazol-1-yl)cyclohexyl)methyl)piperazin-1-yl)phenyl) piperidine-2,6-dione] | 13 | 2.8
Cc1cccc(-c2cnc(Nc3cnn(C4CCN(CC(=O)N5CCN(c6ccc7c(c6)C(=O)N(C6CCC(=O)NC6=O)C7=O)CC5)CC4)c3)c3nccn23)c1 (stereo not drawn) [Compound 1, 2-(2,6-dioxopiperidin-3-yl)-5-(4-(2-(4-(4-((5-(m-tolyl)imidazo[1,2-a]pyrazin-8-yl)amino)-1H-pyrazol-1-yl)piperidin-1-yl)acetyl)piperazin-1-yl)isoindoline-1,3-dione] | 27 | 5
Cc1cccc(-c2cnc(Nc3cnn(C4CCN(CCN5CCN(c6ccc7c(c6)C(=O)N(C6CCC(=O)NC6=O)C7=O)CC5)CC4)c3)c3nccn23)c1 (stereo not drawn) [Compound 2, 2-(2,6-dioxopiperidin-3-yl)-5-(4-(2-(4-(4-((5-(m-tolyl)imidazo[1,2-a]pyrazin-8-yl)amino)-1H-pyrazol-1-yl)piperidin-1-yl)ethyl)piperazin-1-yl)isoindoline-1,3-dione] | 18 | 4.2
Cc1cccc(-c2cnc(Nc3cnn(C4CCN(CCCCN5CCN(c6ccc(C7CCC(=O)NC7=O)cc6)CC5)CC4)c3)c3nccn23)c1 (stereo not drawn) [Compound 3, 3-(4-(4-(4-(4-(4-((5-(m-tolyl)imidazo[1,2-a]pyrazin-8-yl)amino)-1H-pyrazol-1-yl)piperidin-1-yl)butyl)piperazin-1-yl)phenyl) piperidine-2,6-dione] | 11 | 1.3
Cc1cccc(-c2cnc(Nc3cnn(C4CCN(CCCN5CCN(c6ccc(C7CCC(=O)NC7=O)cc6)CC5)CC4)c3)c3nccn23)c1 (stereo not drawn) [Compound 4, 3-(4-(4-(3-(4-(4-((5-(m-tolyl)imidazo[1,2-a]pyrazin-8-yl)amino)-1H-pyrazol-1-yl)piperidin-1-yl)propyl)piperazin-1-yl)phenyl) piperidine-2,6-dione] | 17 | 2.3
Cc1cc(-c2cnc(Nc3cnn(C4CCN(CC(=O)N5CCN(c6ccc7c(c6)C(=O)N(C6CCC(=O)NC6=O)C7=O)CC5)CC4)c3)c3nccn23)c(F)cc1F (stereo not drawn) [Compound 6, 5-(4-(2-(4-(4-((5-(2,4-difluoro-5-methylphenyl)imidazo[1,2-a]pyrazin-8-yl)amino)-1H-pyrazol-1-yl)piperidin-1-yl)acetyl)piperazin-1-yl)-2-(2,6-dioxopiperidin-3-yl)isoindoline-1,3-dione] | 23 | 1
Cc1cc(-c2cnc(Nc3cnn(C4CCN(CCN5CCN(c6ccc(C7CCC(=O)NC7=O)cc6)C[C@@H]5C)CC4)c3)c3nccn23)c(F)cc1F (stereo partly drawn) [Compound 7, 3-(4-((S)-4-(2-(4-(4-((5-(2,4-difluoro-5-methylphenyl)imdazo [1,2-a]pyrazin-8-yl)amino)-1H-pyrazol-1-yl)piperidin-1-yl)ethyl)-3-methylpiperazin-1-yl)phenyl) piperidine-2,6-dione] | 12 | 1.5
Cc1cc(-c2cnc(Nc3cnn(C4CCN(CCN5CCN(c6ccc(C7CCC(=O)NC7=O)cc6)CC5)CC4)c3)c3nccn23)c(F)cc1F (stereo not drawn) [Compound 8, 3-(4-(4-(2-(4-(4-((5-(2,4-difluoro-5-methylphenyl)imidazo[1,2-a]pyrazin-8-yl)amino)-1H-pyrazol-1-yl)piperidin-1-yl)ethyl)piperazin-1-yl)phenyl)piperidine-2,6-dione] | 9 | 1.3
Cc1cc(-c2cnc(Nc3cnn(C4CCN(CCN5CCN(c6ccc(C7CCC(=O)NC7=O)cc6)C[C@H]5C)CC4)c3)c3nccn23)c(F)cc1F (stereo partly drawn) [Compound 9, 3-(4-((R)-4-(2-(4-(4-((5-(2,4-difluoro-5-methylphenyl)imdazo [1,2-a]pyrazin-8-yl)amino)-1H-pyrazol-1-yl)piperidin-1-yl)ethyl)-3-methylpiperazin-1-yl)phenyl) piperidine-2,6-dione] | 14 | 1.1
Cc1cc(-c2cnc(Nc3cnn(C4CCN(CC(=O)N5CCN(c6ccc7c(c6)CN(C6CCC(=O)NC6=O)C7=O)CC5)CC4)c3)c3nccn23)c(F)cc1F (stereo not drawn) [Compound 10, 3-(5-(4-(2-(4-(4-((5-(2,4-difluoro-5-methylphenyl)imidazo[1,2-a]pyrazin-8-yl)amino)-1H-pyrazol-1-yl)piperidin-1-yl)acetyl)piperazin-1-yl)-1-oxoisoindolin-2-yl)piperidine-2,6-dione] | 14 | 0.51
Cc1cc(-c2cnc(Nc3cnn([C@H]4CC[C@H](CCN5CCN(c6ccc(C7CCC(=O)NC7=O)cc6)CC5)CC4)c3)c3nccn23)c(F)cc1F (stereo partly drawn) [Compound 11, 3-(4-(4-(2-((trans)-4-(4-((5-(2,4-difluoro-5-methylphenyl)imidazo[1,2-a]pyrazin-8-yl)amino)-1H-pyrazol-1-yl)cyclohexyl)ethyl)piperazin-1-yl)phenyl)piperidine-2,6-dione] | 12 | 8.9
Cc1cc(-c2ccc(Nc3cnn(C4CCN(CCN5CCN(c6ccc(C7CCC(=O)NC7=O)cc6)CC5)CC4)c3)c3nccn23)c(F)cc1F (stereo not drawn) [Compound 12, 3-(4-(4-(2-(4-(4-((5-(2,4-difluoro-5-methylphenyl)imdazo [1,2-a]pyridin-8-yl)amino)-1H-pyrazol-1-yl)piperidin-1-yl)ethyl)piperazin-1-yl)phenyl) piperidine-2,6-dione] | 13 | 2
Cc1cc(-c2cnc(Nc3cnn(C4CCN(CCN5[C@H](C)CN(c6ccc(C7CCC(=O)NC7=O)cc6)C[C@@H]5C)CC4)c3)c3nccn23)c(F)cc1F (stereo partly drawn) [Compound 13, 3-(4-((3S,5R)-4-(2-(4-(4-((5-(2,4-difluoro-5-methylphenyl)imdazo [1,2-a]pyrazin-8-yl)amino)-1H-pyrazol-1-yl)piperidin-1-yl)ethyl)-3,5-dimethylpiperazin-1-yl)phenyl) piperidine-2,6-dione] | 11 | 1.3
Cc1cc(-c2cnc(Nc3cnn([C@H]4CC[C@@H](CCN5CCN(c6ccc(C7CCC(=O)NC7=O)cc6)CC5)CC4)c3)c3nccn23)c(F)cc1F (stereo partly drawn) [Compound 14, 3-(4-(4-(2-((cis)-4-(4-((5-(2,4-difluoro-5-methylphenyl)imidazo[1,2-a]pyrazin-8-yl)amino)-1H-pyrazol-1-yl)cyclohexyl)ethyl)piperazin-1-yl)phenyl) piperidine-2,6-dione] | 13 | 4.3
Cc1cccc(-c2cnc(Nc3cnn(C4CCN(CC(=O)N5CCN(c6ccc7c(c6)C(=O)N(C6CCC(=O)NC6=O)C7)CC5)CC4)c3)c3nccn23)c1 (stereo not drawn) [Compound 16, 3-(1-oxo-6-(4-(2-(4-(4-((5-(m-tolyl)imidazo[1,2-a]pyrazin-8-yl)amino)-1H-pyrazol-1-yl)piperidin-1-yl)acetyl)piperazin-1-yl)isoindolin-2-yl)piperidine-2,6-dione] | 45 | 1.5
Cc1cc(-c2cnc(Nc3cnn(C4CCN(CC(=O)N5CCN(c6ccc(C7CCC(=O)NC7=O)cc6)CC5)CC4)c3)c3nccn23)c(F)cc1F (stereo not drawn) [Compound 17, 3-(4-(4-(2-(4-(4-((5-(2,4-difluoro-5-methylphenyl)imidazo[1,2-a]pyrazin-8-yl)amino)-1H-pyrazol-1-yl)piperidin-1-yl)acetyl)piperazin-1-yl)phenyl)piperidine-2,6-dione] | 15 | 1.3
Cc1cc(-c2cnc(Nc3cnn(C4CCN(CC(=O)N5CCN(c6ccc7c(c6)C(=O)N(C6CCC(=O)NC6=O)C7)CC5)CC4)c3)c3nccn23)c(F)cc1F (stereo not drawn) [Compound 18, 3-(6-(4-(2-(4-(4-((5-(2,4-difluoro-5-methylphenyl)imidazo[1,2-a]pyrazin-8-yl)amino)-1H-pyrazol-1-yl)piperidin-1-yl)acetyl)piperazin-1-yl)-1-oxoisoindolin-2-yl)piperidine-2,6-dione] | 20 | 0.5
Cc1cccc(-c2cnc(Nc3cnn(C4CCN(CC(=O)N5CCN(c6ccc7c(c6)CN(C6CCC(=O)NC6=O)C7=O)CC5)CC4)c3)c3nccn23)c1 (stereo not drawn) [Compound 19, 3-(1-oxo-5-(4-(2-(4-(4-((5-(m-tolyl)imidazo[1,2-a]pyrazin-8-yl)amino)-1H-pyrazol-1-yl)piperidin-1-yl)acetyl)piperazin-1-yl)isoindolin-2-yl)piperidine-2,6-dione] | 18 | 1.8
